From US7723321B2, “Chromane substituted benzimidazole derivatives” (RaQualia Pharma Inc., priority 2005, dated 2010)

Target: T1, porcine gastric H^+/K^+-ATPase (Sus scrofa, UniProt P19156)
T1 construct: prepared from mucous membrane in fresh porcine stomachs by homogenization; from tissue; host or cells: mucous membrane of fresh porcine stomachs (gastric vesicles, Ficoll/sucrose gradient)
Assay: Ion-tight porcine gastric H+/K+-ATPase inhibition
Assay type: biochemical
Details: ion-tight porcine gastric vesicles, 150 mM KCl, valinomycin, pH 7.4, 37° C., 30 minutes
Protocol: The porcine gastric vesicles for Porcine gastric H^+/K^+-ATPase inhibition assays were prepared from mucous membrane in fresh porcine stomachs by homogenization with a tight-fitted polytetrafluoroethylene (Teflone®) homogenizer in 0.25 M sucrose at 4° C. The crude pellet was removed with centrifugation at 20,000 g for 30 min. Then supernatant was centrifuged at 100,000 g for 30 min. The resulting pellet was re-suspended in 0.25 M sucrose, and then subjected to density gradient centrifugation at 132,000 g for 90 min. The gastric vesicles were collected from interface on 0.25 M sucrose layer containing 7% Ficoll™ PM400(Amersham Biosciences). This procedure was performed in a cold room.
Ion-tight porcine gastric H^+/K^+-ATPase inhibition was measured according to the modified method described in Biochemical Pharmacology, 1988, 37, 2231-2236.
The isolated vesicles were kept in deep-freezer until use. For enzyme assay, vesicles were diluted with 3 mM MgSO4 containing 5 mM Tris (pH 7.4 at 37° C.).
Enzyme reaction was performed incubating 150 mM KCl, 3 mM Na2ATP, 3 mM MgSO4 15 μM valinomycin and 3.0 μg of vesicles for 30 minutes at 37° C. in a final 60 μl of reaction mixture (5 mM Tris, pH 7.4) with or without the test compound. Enzyme reaction was stopped by adding 10% SDS. Released inorganic phosphate from ATP was detected by incubating with mixture of 1 part of 35 mM ammonium molybdate tetrahydrate in 15 mM Zinc acetate hydrate and 4 parts of 10% ascorbic acid (pH 5.0), resulting in phosphomolybdate, which has optical density at 750 nm.

T1 sequence (P19156 2-1034 limits assumed): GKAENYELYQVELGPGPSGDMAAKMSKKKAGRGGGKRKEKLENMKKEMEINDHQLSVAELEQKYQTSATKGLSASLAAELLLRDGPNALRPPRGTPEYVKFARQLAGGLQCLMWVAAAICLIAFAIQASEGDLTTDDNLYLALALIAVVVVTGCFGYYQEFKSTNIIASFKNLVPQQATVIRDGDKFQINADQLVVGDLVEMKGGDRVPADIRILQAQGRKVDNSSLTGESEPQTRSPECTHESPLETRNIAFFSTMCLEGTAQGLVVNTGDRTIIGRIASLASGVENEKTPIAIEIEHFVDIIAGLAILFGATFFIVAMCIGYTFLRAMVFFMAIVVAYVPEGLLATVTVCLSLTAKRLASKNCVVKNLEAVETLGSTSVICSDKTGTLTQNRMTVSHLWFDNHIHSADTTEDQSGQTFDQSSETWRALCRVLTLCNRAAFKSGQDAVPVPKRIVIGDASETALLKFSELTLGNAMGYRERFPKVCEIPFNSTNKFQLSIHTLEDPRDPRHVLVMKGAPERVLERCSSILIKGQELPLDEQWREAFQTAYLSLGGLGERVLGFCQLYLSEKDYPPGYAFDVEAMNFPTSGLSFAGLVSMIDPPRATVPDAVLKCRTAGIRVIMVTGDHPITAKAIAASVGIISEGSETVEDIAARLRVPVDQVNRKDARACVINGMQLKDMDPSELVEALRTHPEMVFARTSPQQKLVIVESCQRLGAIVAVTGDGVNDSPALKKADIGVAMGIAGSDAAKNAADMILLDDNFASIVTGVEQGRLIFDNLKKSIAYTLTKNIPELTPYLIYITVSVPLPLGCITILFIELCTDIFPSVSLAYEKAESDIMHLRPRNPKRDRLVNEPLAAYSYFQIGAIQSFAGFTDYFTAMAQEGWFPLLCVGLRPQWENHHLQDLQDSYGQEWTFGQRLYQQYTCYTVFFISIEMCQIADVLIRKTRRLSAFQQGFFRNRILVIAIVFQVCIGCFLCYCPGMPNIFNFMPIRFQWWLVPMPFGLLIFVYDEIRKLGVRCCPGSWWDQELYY
T1 sequence (P18434 whole entry partner): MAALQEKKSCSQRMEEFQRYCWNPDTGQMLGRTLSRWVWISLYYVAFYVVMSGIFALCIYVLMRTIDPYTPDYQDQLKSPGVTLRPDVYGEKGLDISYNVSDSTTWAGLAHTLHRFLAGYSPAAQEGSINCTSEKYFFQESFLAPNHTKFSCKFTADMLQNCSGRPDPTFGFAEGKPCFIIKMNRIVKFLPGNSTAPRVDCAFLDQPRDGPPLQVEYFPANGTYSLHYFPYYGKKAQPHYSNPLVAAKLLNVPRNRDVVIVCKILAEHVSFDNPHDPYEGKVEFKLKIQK

| SMILES | IC50 [nM] |
| --- | --- |
| Cc1nc2c(OC3CCOc4cc(F)cc(F)c43)cc(C(=O)N(C)CCO)cc2[nH]1 (centres unmarked) [Example 7, 4-[(5,7-Difluoro-3,4-dihydro-2H-chromen-4-yl)oxy]-N-(2-hydroxyethyl)-N,2-dimethyl-1H-benzimidazole-6-carboxamide] | 1100 |
| Cc1nc2c(OC3CCOc4c(F)ccc(F)c43)cc(C(=O)N(C)C)cc2[nH]1 (centres unmarked) [Example 14, 4-[(5,8-Difluoro-3,4-dihydro-2H-chromen-4-yl)oxy]-N,N,2-trimethyl-1H-benzimidazole-6-carboxamide] | 220 |
| Cc1nc2c(OC3CCOc4cccc(C)c43)cc(C(=O)N(C)C)cc2[nH]1 (centres unmarked) [Example 16, N,N,2-Trimethyl-4-[(5-methyl-3,4-dihydro-2H-chromen-4-yl)oxy]-1H-benzimidazole-6-carboxamide] | 68 |
| Cc1nc2c(O[C@H]3CCOc4cc(F)cc(F)c43)cc(C(=O)N3CCOCC3)cc2[nH]1 [Example 24, (−)-4-[(5,7-Difluoro-3,4-dihydro-2H-chromen-4-yl)oxy]-2-methyl-6-(morpholin-4-ylcarbonyl)-1H-benzimidazole] | 370 |
| Cc1nc2c(OC3CCSc4ccccc43)cc(C(=O)N(C)C)cc2[nH]1 (centres unmarked) [Example 25, 4-(3,4-Dihydro-2H-thiochromen-4-yloxy)-N,N,2-trimethyl-1H-benzimidazole-6-carboxamide] | 160 |
| Cc1nc2c(OC3CCOc4ccccc43)cc(C(=O)N(C)C)cc2[nH]1 (centres unmarked) [Example 12, 4-(3,4-Dihydro-2H-chromen-4-yloxy)-N,N,2-tri methyl-1H-benzimidazole-6-carboxamide] | 230 |
| Cc1nc2c(OC3CCOc4cccc(C)c43)cc(C(=O)N3CCCC3)cc2[nH]1 (centres unmarked) [Example 20, 2-Methyl-4-[(5-methyl-3,4-dihydro-2H-chromen-4-yl)oxy]-6-(pyrrolidin-1-ylcarbonyl)-1H-benzimidazole] | 71 |
| Cc1nc2c(OC3CCOc4cc(F)cc(C)c43)cc(C(=O)N(C)C)cc2[nH]1 (centres unmarked) [Example 21, 4-[(7-Fluoro-5-methyl-3,4-dihydro-2H-chromen-4-yl)oxy]-N,N,2-trimethyl-1H-benzimidazole-6-carboxamide] | 82 |
| Cc1nc2c(OC3CCOc4cccc(F)c43)cc(C(=O)N(C)C)cc2[nH]1 (single isomer, unassigned; (-)) [Example 10, (−)-4-[(5-Fluoro-3,4-dihydro-2H-chromen-4-yl)oxy]-N,N,2-trimethyl-1H-benzimidazole-6-carboxamide] | 140 |
| Cc1nc2c(O[C@H]3CCOc4cc(F)cc(F)c43)cc(C(=O)N(C)C)cc2[nH]1 (single isomer, unassigned) [Example 2] | 86 |
| Cc1nc2c(OC3CCOc4c(F)ccc(C)c43)cc(C(=O)N(C)C)cc2[nH]1 (centres unmarked) [Example 13, 4-[(8-Fluoro-5-methyl-3,4-dihydro-2H-chromen-4-yl)oxy]-N,N,2-trimethyl-1H-benzimidazole-6-carboxamide] | 130 |
| Cc1nc2c(O[C@@H]3CCOc4cc(F)cc(F)c43)cc(C(=O)N(C)C)cc2[nH]1 (single isomer, unassigned) [Example 3] | 98 |
| Cc1nc2c(OC3CCOc4cccc(C)c43)cc(C(=O)N(C)C)cc2[nH]1 (single isomer, unassigned; (-)) [Example 17, (−)-N,N,2-Trimethyl-4-[(5-methyl-3,4-dihydro-2H-chromen-4-yl)oxy]-1H-benzimidazole-6-carboxamide] | 99 |
| Cc1nc2c(OC3CCOc4cc(F)cc(F)c43)cc(C(=O)N(C)CCN(C)C)cc2[nH]1 (centres unmarked) [Example 8, 4-[(5,7-Difluoro-3,4-dihydro-2H-chromen-4-yl)oxy]-N-[2-(dimethylamino)ethyl]-N,2-dimethyl-1H-benzimidazole-6-carboxamide] | 610 |
| Cc1nc2c(OC3CCOc4cc(F)cc(F)c43)cc(C(=O)N3CCCC3)cc2[nH]1 (single isomer, unassigned; (-)) [Example 6, (−)-4-[(5,7-Difluoro-3,4-dihydro-2H-chromen-4-yl)oxy]-2-methyl-6-(pyrrolidin-1-ylcarbonyl)-1H-benzimidazole] | 30 |
| Cc1nc2c(OC3CCOc4cc(F)cc(F)c43)cc(C(=O)N(C)C)cc2[nH]1 (racemic) [Example 1, 4-[(5,7-Difluoro-3,4-dihydro-2H-chromen-4-yl)oxy]-N,N,2-trimethyl-1H-benzimidazole-6-carboxamide] | 190 |
| Cc1nc2c(OC3CCOc4cccc(F)c43)cc(C(=O)N(C)C)cc2[nH]1 (racemic) [Example 9, 4-[(5-Fluoro-3,4-dihydro-2H-chromen-4-yl)oxy]-N,N,2-trimethyl-1H-benzimidazole-6-carboxamide] | 130 |
| Cc1nc2c(OC3CCOc4cc(F)cc(F)c43)cc(C(=O)N3CCCC3)cc2[nH]1 (single isomer, unassigned; (+)) [Example 5, (+)-4-[(5,7-Difluoro-3,4-dihydro-2H-chromen-4-yl)oxy]-2-methyl-6-(pyrrolidin-1-ylcarbonyl)-1H-benzimidazole] | 32 |
| CNC(=O)c1cc(OC2CCOc3cccc(C)c32)c2nc(C)[nH]c2c1 (centres unmarked) [Example 19, N,2-Dimethyl-4-[(5-methyl-3,4-dihydro-2H-chromen-4-yl)oxy]-1H-benzimidazole-6-carboxamide] | 240 |
| Cc1nc2c(OC3CCOc4cc(F)cc(F)c43)cc(C(=O)N3CCCC3)cc2[nH]1 (racemic) [Example 4, 4-[(5,7-Difluoro-3,4-dihydro-2H-chromen-4-yl)oxy]-2-methyl-6-(pyrrolidin-1-ylcarbonyl)-1H-benzimidazole] | 58 |
| Cc1nc2c(OC3CCOc4cccc(F)c43)cc(C(=O)N(C)C)cc2[nH]1 (single isomer, unassigned; (+)) [Example 11, (+)-4-[(5-Fluoro-3,4-dihydro-2H-chromen-4-yl)oxy]-N,N,2-trimethyl-1H-benzimidazole-6-carboxamide] | 120 |
| CCN(C)C(=O)c1cc(O[C@H]2CCOc3cc(F)cc(F)c32)c2nc(C)[nH]c2c1 [Example 23, (−)-4-[(5,7-Difluoro-3,4-dihydro-2H-chromen-4-yl)oxy]-N-ethyl-N,2-dimethyl-1H-benzimidazole-6-carboxamide] | 110 |
| Cc1nc2c(OC3CCOc4cc(F)cc(F)c43)cc(C(=O)N3CCC3)cc2[nH]1 (single isomer, unassigned; (-)) [Example 22, (−)-6-(Azetidin-1-ylcarbonyl)-4-[(5,7-difluoro-3,4-dihydro-2H-chromen-4-yl)oxy]-2-methyl-1H-benzimidazole] | 570 |
| CCc1nc2c(OC3CCOc4cc(F)cc(F)c43)cc(C(=O)N(C)C)cc2[nH]1 (centres unmarked) [Example 15, 4-[(5,7-Difluoro-3,4-dihydro-2H-chromen-4-yl)oxy]-2-ethyl-N,N-dimethyl-1H-benzimidazole-6-carboxamide] | 210 |
| Cc1nc2c(OC3CCOc4cccc(C)c43)cc(C(=O)N(C)C)cc2[nH]1 (single isomer, unassigned; (+)) [Example 18, (+)-N,N,2-Trimethyl-4-[(5-methyl-3,4-dihydro-2H-chromen-4-yl)oxy]-1H-benzimidazole-6-carboxamide] | 130 |

System: gastric acid secretion
Assay: Inhibition of gastric acid secretion in the Heidenhain pouch dog
Assay type: in vivo, Beagle dogs
Details: histamine-stimulated acid secretion, maximum inhibition relative to control
Protocol: Male Beagle dogs weighing 7-15 kg with Heidenhain pouch [Heidenhain R: Arch Ges Physiol. 1879, 19: 148-167] were used. The animals were allowed to recover from surgery for at least three weeks before the experiments. The animals were kept at a 12 hour light-dark rhythm, housed singly. They received standard food once daily at 11:00 a.m. and tap water ad libitum, and were fasted overnight prior to the experiment, with free access to water. Gastric juice samples were collected throughout the experiment by gravity drainage every 15 min. Acidity in the gastric juice was measured by titration to the end point of pH 7.0. Acid secretion was stimulated by a continuous intravenous infusion of histamine (80 μg/kg/h). Oral or intravenous bolus administration of the test compounds was done 90 minutes after commencement of the histamine infusion. The acid secretion was monitored after the administration. The activity was evaluated by the maximum inhibition relative to the corresponding control value.

| SMILES | inhibitory activity (gastric acid secretion) |
| --- | --- |
| Cc1nc2c(O[C@H]3CCOc4cc(F)cc(F)c43)cc(C(=O)N(C)C)cc2[nH]1 (single isomer, unassigned) [Example 2] | good inhibitory activity |
